Results published in the PolyMetriX glass transition set.
± gives the standard deviation of the reports.

## *CC(*)c1c(Cl)cccc1Cl (repeat unit)
  glass transition temperature: 165.00 °C

## */C=C/C1CC(*)C(C(=O)OC)C1C(=O)OC (repeat unit)
  glass transition temperature: 77.30 °C

## *NC(CCC(=O)OC)C(*)=O (repeat unit)
  glass transition temperature: 0.00 °C

## *c1ccc([Si](c2ccccc2)(c2ccccc2)c2ccc(-c3nnc(-c4ccc(-c5nnc(*)o5)nc4)o3)cc2)cc1 (repeat unit)
  glass transition temperature: 272.00 °C

## *CCCCCCCNC(=O)CCCCCCCCCCCCCCCCCCC(=O)N* (repeat unit)
  glass transition temperature: 46.00 °C

## *CC(*)c1ccccc1COCc1ccccc1 (repeat unit)
  glass transition temperature: 72.00 °C

## *Oc1ccc(C(C)(C)c2ccc(OC(=O)c3ccc(S(=O)(=O)c4ccc(C(*)=O)cc4)cc3)cc2)cc1 (repeat unit)
  glass transition temperature: 220.00 °C

## *C(=O)Nc1ccc(Oc2ccc(NC(=O)c3ccc(N4C(=O)c5ccc(*)cc5C4=O)cc3)cc2)cc1 (repeat unit)
  glass transition temperature: 296.00 °C

## *Oc1ccc(/C=C2\CC/C(=C\c3ccc(OC(=O)c4ccc(/N=C/c5ccc(/C=N/c6ccc(C(*)=O)cc6)cc5)cc4)cc3)C2=O)cc1 (repeat unit)
  glass transition temperature: 205.00 °C

## *c1ccc(Oc2ccc(C(=O)c3ccc(Oc4ccc(-c5nc(-c6cccc(-c7nc(*)c(-c8ccccc8)[nH]7)c6)[nH]c5-c5ccccc5)cc4)cc3)cc2)cc1 (repeat unit)
  glass transition temperature: 282.00 °C

## *c1ccc(*)c(C(=O)c2ccc(F)cc2)c1 (repeat unit)
  glass transition temperature: 194.00 °C

## */C=C/c1cccc(/C=C/[Si](C)(CCC(F)(F)F)c2ccc([Si](*)(C)CCC(F)(F)F)cc2)c1 (repeat unit)
  glass transition temperature: 34.50 °C

## *CC(*)C(=O)OCCCCn1c2ccccc2c2ccccc21 (repeat unit)
  glass transition temperature: 68.00 °C

## *c1ccc(Oc2ccc(C(C)(C)c3ccc(Oc4ccc(-c5nnc(*)o5)cc4)cc3)cc2)cc1 (repeat unit)
  glass transition temperature: 180.00 °C

## *c1ccc(-c2cnc3cc4ncc(*)nc4cc3n2)cc1 (repeat unit)
  glass transition temperature: 392.00 °C

## *CC(*)(C)C(=O)OCc1ccccc1Cl (repeat unit)
  glass transition temperature: 54.10 °C

## *c1cc(C(c2ccc(OCc3cc(OCCN(C)c4ccc(/C=C/C5=CC(=C(C#N)C#N)CC(C)(C)C5)cc4)cc(OCCN(C)c4ccc(/C=C/C5=CC(=C(C#N)C#N)CC(C)(C)C5)cc4)c3)c(N3C(=O)c4ccc(Oc5ccc6c(c5)C(=O)N(*)C6=O)cc4C3=O)c2)(C(F)(F)F)C(F)(F)F)ccc1OCc1cc(OCCN(C)c2ccc(/C=C/C3=CC(=C(C#N)C#N)CC(C)(C)C3)cc2)cc(OCCN(C)c2ccc(/C=C/C3=CC(=C(C#N)C#N)CC(C)(C)C3)cc2)c1 (repeat unit)
  glass transition temperature: 178.00 °C

## *CCCCCCNC(=O)c1cc(C(=O)N*)cc(C(C)(C)C)c1 (repeat unit)
  glass transition temperature: 163.00 °C

## *C(=O)Nc1ccc(Oc2cc(C(C)(C)C)c(Oc3ccc(NC(=O)c4ccc5c(c4)C(=O)N(c4ccc(Oc6ccc(C7(c8ccc(Oc9ccc(N%10C(=O)c%11ccc(*)cc%11C%10=O)cc9)cc8)CC8CC7C7CCCC87)cc6)cc4)C5=O)cc3)cc2C(C)(C)C)cc1 (repeat unit)
  glass transition temperature: 290.00 °C

## *CCCCCCCCOc1ccc(/C=C2\CCC/C(=C\c3ccc(O*)c(OC)c3)C2=O)cc1OC (repeat unit)
  glass transition temperature: 72.00 °C

## *CCN(CCOC(=O)Nc1ccc(C)c(NC(=O)O*)c1)c1ccc(C(C#N)=C(C#N)C#N)cc1 (repeat unit)
  glass transition temperature: 125.00 °C

## *CCCC(C)(C)CNC(=O)CCCC(=O)N* (repeat unit)
  glass transition temperature: 82.00 °C

## *CCCCCCCCCCCCCCCCOC(=O)CCCCCCC(=O)O* (repeat unit)
  glass transition temperature: -26.00 °C

## *CCOc1ccc(S(=O)(=O)c2ccc(OCCOP(=O)(O*)Oc3ccc(Br)cc3)cc2)cc1 (repeat unit)
  glass transition temperature: 59.00 °C

## *Oc1ccc(S(=O)(=O)c2ccc(Oc3ccc(C(C)(C)c4ccc(Oc5ccc(C(=O)c6ccc(*)cc6)cc5)cc4)cc3)cc2)cc1 (repeat unit)
  glass transition temperature: 175.00 °C

## *Nc1ccc(NC(=O)c2ccc(NC(=O)CCCCCCCCCCCCC(=O)Nc3ccc(C(*)=O)cc3)cc2)cc1C(=O)OCCCCCCCCCCCCCCCC (repeat unit)
  glass transition temperature: 250.00 °C

## *CCN(*)C(=O)c1c(F)ccc(F)c1F (repeat unit)
  glass transition temperature: 124.00 °C

## *c1cccc(C(O)c2cccc(N3C(=O)c4ccc(Oc5ccc6c(c5)C(=O)N(*)C6=O)cc4C3=O)c2)c1 (repeat unit)
  glass transition temperature: 252.00 °C

## *c1ccc2oc(-c3ccc(C(c4ccc(-c5nc6cc(C(*)(c7ccccc7)C(F)(F)F)ccc6o5)cc4)(C(F)(F)F)C(F)(F)F)cc3)nc2c1 (repeat unit)
  glass transition temperature: 334.00 °C

## *c1ccc(Oc2ccc(-c3ccc(Oc4ccc(N5C(=O)c6ccc(Oc7cc8ccccc8cc7Oc7ccc8c(c7)C(=O)N(*)C8=O)cc6C5=O)cc4)cc3)cc2)cc1 (repeat unit)
  glass transition temperature: 222.50 °C

## *CCOC(=O)c1ccc2cc(C(=O)O*)ccc2c1 (repeat unit) [Poly(ethylene 2,6-naphthalate)]
  glass transition temperature: 121.42 ± 2.3 °C
